Measured values as given in PubChem BioAssay (NCI).
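In this assay, cells in 96-well plates receive the compound at five concentrations for 48 hours. Endpoints are linearly interpolated between the surrounding concentrations. GI50 is the concentration that inhibits growth by half. The concentration for full growth arrest is given as TGI.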

Tests used:
Test in all cases: inhibition of tumour cell growth, NCI panel, 48 h
TK-10 renal = system: TK-10 renal
PC-3 prostate = system: PC-3 prostate
HCT-15 colon = system: HCT-15 colon
IGROV1 ovarian = system: IGROV1 ovarian
OVCAR-3 ovarian = system: OVCAR-3 ovarian
MDA-MB-231 breast = system: MDA-MB-231 breast
NCI/ADR-RES ovarian = system: NCI/ADR-RES ovarian
HT29 colon = system: HT29 colon
K-562 leukemia = system: K-562 leukemia
UO-31 renal = system: UO-31 renal

## CCN1CCN(c2nc3ccccc3nc2C(=O)c2ccc(OC)c(OC)c2)CC1
TK-10 renal
  TGI: 87.5 µM
PC-3 prostate
  TGI: > 100 µM
HCT-15 colon
  TGI: 28.8 µM
IGROV1 ovarian
  TGI: 32.9 µM
OVCAR-3 ovarian
  TGI: 60.6 µM
MDA-MB-231 breast
  TGI: 32 µM
NCI/ADR-RES ovarian
  TGI: 3.39 µM
HT29 colon
  TGI: 39.4 µM
K-562 leukemia
  TGI: 34.1 µM
UO-31 renal
  TGI: 47.1 µM

## CC1C(=O)c2cc3c(cc2CCN(C)Cc2c1ccc1c2OCO1)OCO3 (stereo not drawn)
TK-10 renal
  GI50: > 75 µg/mL
  TGI: > 75 µg/mL
PC-3 prostate
  GI50: 24 µg/mL
  TGI: > 75 µg/mL
HCT-15 colon
  GI50: > 75 µg/mL
  TGI: > 75 µg/mL
IGROV1 ovarian
  GI50: > 75 µg/mL
  TGI: > 75 µg/mL
OVCAR-3 ovarian
  GI50: > 75 µg/mL
  TGI: > 75 µg/mL
MDA-MB-231 breast
  GI50: > 75 µg/mL
  TGI: > 75 µg/mL
NCI/ADR-RES ovarian
  GI50: 58.3 µg/mL
  TGI: > 75 µg/mL
HT29 colon
  GI50: 19.6 µg/mL
  TGI: > 75 µg/mL
K-562 leukemia
  GI50: 24.7 µg/mL
  TGI: > 75 µg/mL

## O=C1/C(=C/c2[nH]ncc2-c2ccc(Cl)cc2)C(=O)N(c2ccccc2)C1c1ccccc1 (stereo not drawn)
TK-10 renal
  TGI: > 100 µM
PC-3 prostate
  TGI: > 100 µM
HCT-15 colon
  TGI: 36.9 µM
IGROV1 ovarian
  TGI: 45.1 µM
OVCAR-3 ovarian
  TGI: 26.9 µM
MDA-MB-231 breast
  TGI: 42.6 µM
NCI/ADR-RES ovarian
  TGI: > 100 µM
HT29 colon
  TGI: 27.5 µM
K-562 leukemia
  TGI: 54.5 µM
UO-31 renal
  TGI: 58.7 µM

## Clc1ccc(Nc2nc(Nc3ccccc3)nc(Nc3ccc(-c4cc(-c5ccc(Cl)cc5)on4)cc3)n2)cc1
TK-10 renal
  GI50: 19.2 µM
  TGI: > 100 µM
PC-3 prostate
  GI50: 8.4 µM
  TGI: > 100 µM
HCT-15 colon
  GI50: 14.1 µM
  TGI: 84.8 µM
IGROV1 ovarian
  GI50: 12.7 µM
  TGI: > 100 µM
OVCAR-3 ovarian
  GI50: 27.4 µM
  TGI: > 100 µM
MDA-MB-231 breast
  GI50: 10.5 µM
  TGI: 66.3 µM
NCI/ADR-RES ovarian
  GI50: 21.1 µM
  TGI: > 100 µM
HT29 colon
  GI50: 10.8 µM
  TGI: 25.5 µM
K-562 leukemia
  GI50: 21.4 µM
  TGI: > 100 µM

## COc1cccc(/C=N/[N-]C(N)=O)c1[O-].[Ni+2].[OH3+]
TK-10 renal
  TGI: 2.74 µM
HCT-15 colon
  TGI: 1.17 µM
IGROV1 ovarian
  TGI: 0.811 µM
OVCAR-3 ovarian
  TGI: 0.596 µM
HT29 colon
  TGI: 2.07 µM
K-562 leukemia
  TGI: 2.31 µM
UO-31 renal
  TGI: 2.09 µM

## CN(C)C(=O)OC1=CC2CCC(C1)N2C (stereo not drawn)
TK-10 renal
  TGI: > 100 µM
PC-3 prostate
  TGI: > 100 µM
HCT-15 colon
  TGI: > 100 µM
IGROV1 ovarian
  TGI: > 100 µM
OVCAR-3 ovarian
  TGI: > 100 µM
MDA-MB-231 breast
  TGI: > 100 µM
NCI/ADR-RES ovarian
  TGI: > 100 µM
HT29 colon
  TGI: > 100 µM
K-562 leukemia
  TGI: > 100 µM
UO-31 renal
  TGI: > 100 µM

## COc1cc(C2c3cc4c(cc3[C@@H](Nc3ccc(Oc5ccccc5)cc3)C3COC(=O)[C@H]23)OCO4)cc(OC)c1O (stereo partly drawn)
HCT-15 colon
  TGI: 19.7 µM
IGROV1 ovarian
  TGI: > 100 µM
OVCAR-3 ovarian
  TGI: > 100 µM
NCI/ADR-RES ovarian
  TGI: > 100 µM
HT29 colon
  TGI: > 100 µM
K-562 leukemia
  TGI: > 32.4 µM
UO-31 renal
  TGI: > 100 µM

## CC1=C[C@@H](C)C[C@]2(C)CC[C@H](O2)[C@]23CC[C@](CO)(C[C@H](O2)[C@@H]2O[C@@](C)(CC2=O)[C@@H](O)[C@H]2CC[C@@]4(CCC[C@@H](O4)[C@H](C)C(=O)O[C@H]4C[C@H]([C@]5(O)OCC[C@H](C)[C@@H]5O)O[C@H]4C=C1)O2)O3
TK-10 renal
  TGI: 0.0714 µM
PC-3 prostate
  TGI: > 10 µM
HCT-15 colon
  TGI: > 10 µM
IGROV1 ovarian
  TGI: 0.0561 µM
OVCAR-3 ovarian
  TGI: 0.102 µM
MDA-MB-231 breast
  TGI: 0.217 µM
NCI/ADR-RES ovarian
  TGI: > 10 µM
HT29 colon
  TGI: > 10 µM
K-562 leukemia
  TGI: > 10 µM
UO-31 renal
  TGI: 0.207 µM

## O=C(CC(c1ccccc1)C1C(=O)NC(=S)NC1=O)c1ccc([N+](=O)[O-])cc1 (stereo not drawn)
TK-10 renal
  TGI: > 100 µM
PC-3 prostate
  TGI: > 100 µM
HCT-15 colon
  TGI: > 100 µM
IGROV1 ovarian
  TGI: > 100 µM
OVCAR-3 ovarian
  TGI: > 100 µM
MDA-MB-231 breast
  TGI: > 100 µM
NCI/ADR-RES ovarian
  TGI: > 100 µM
HT29 colon
  TGI: > 100 µM
K-562 leukemia
  TGI: > 100 µM
UO-31 renal
  TGI: > 100 µM

## O/C(=C\c1nc2ccccc2nc1/C=C(\O)c1ccc(F)cc1)c1ccc(F)cc1
TK-10 renal
  TGI: > 100 µM
PC-3 prostate
  TGI: > 100 µM
HCT-15 colon
  TGI: > 100 µM
IGROV1 ovarian
  TGI: > 100 µM
OVCAR-3 ovarian
  TGI: > 100 µM
MDA-MB-231 breast
  TGI: > 100 µM
NCI/ADR-RES ovarian
  TGI: > 100 µM
HT29 colon
  TGI: > 100 µM
K-562 leukemia
  TGI: > 100 µM
UO-31 renal
  TGI: > 100 µM

## CC(C)CC1c2[nH]c3ccccc3c2C[C@H]2C(=O)NC(CCCCNC(=O)OC(C)(C)C)C(=O)N12 (stereo partly drawn)
TK-10 renal
  TGI: > 100 µM
PC-3 prostate
  TGI: 65.5 µM
HCT-15 colon
  TGI: > 100 µM
IGROV1 ovarian
  TGI: > 100 µM
OVCAR-3 ovarian
  TGI: 16.6 µM
MDA-MB-231 breast
  TGI: 51.1 µM
NCI/ADR-RES ovarian
  TGI: > 100 µM
HT29 colon
  TGI: 64.6 µM
K-562 leukemia
  TGI: > 100 µM
UO-31 renal
  TGI: > 100 µM

## Cc1oc(N)c(S(=O)(=O)c2cc3ccccc3n(O)c2=N)c1C
TK-10 renal
  TGI: > 100 µM
PC-3 prostate
  TGI: > 100 µM
HCT-15 colon
  TGI: > 100 µM
IGROV1 ovarian
  TGI: > 100 µM
OVCAR-3 ovarian
  TGI: > 100 µM
MDA-MB-231 breast
  TGI: > 100 µM
NCI/ADR-RES ovarian
  TGI: > 100 µM
HT29 colon
  TGI: > 100 µM
UO-31 renal
  TGI: > 100 µM

## O=C(Nc1ccc(-n2ccc3c(NC(=O)c4ccccc4)nccc32)cc1)Nc1cccc(C(F)(F)F)c1
TK-10 renal
  GI50: 3.87 µM
  TGI: 18.8 µM
PC-3 prostate
  GI50: 1.8 µM
  TGI: 8.56 µM
HCT-15 colon
  GI50: 1.03 µM
  TGI: 6.55 µM
IGROV1 ovarian
  GI50: 10 µM
  TGI: 30.9 µM
OVCAR-3 ovarian
  GI50: 2.93 µM
  TGI: 7.15 µM
MDA-MB-231 breast
  GI50: 4.65 µM
  TGI: 18.1 µM
NCI/ADR-RES ovarian
  GI50: 10.9 µM
  TGI: 28.7 µM
HT29 colon
  GI50: 1.85 µM
  TGI: 4.93 µM
K-562 leukemia
  GI50: 2.68 µM
  TGI: 10.5 µM
UO-31 renal
  GI50: 13.4 µM
  TGI: 31.7 µM

## N=c1ccc2nc(N)nn(O)c-2c1
TK-10 renal
  TGI: > 100 µM
PC-3 prostate
  TGI: > 100 µM
HCT-15 colon
  TGI: > 100 µM
IGROV1 ovarian
  TGI: > 100 µM
OVCAR-3 ovarian
  TGI: > 100 µM
MDA-MB-231 breast
  TGI: > 100 µM
NCI/ADR-RES ovarian
  TGI: > 100 µM
HT29 colon
  TGI: > 100 µM
K-562 leukemia
  TGI: > 100 µM
UO-31 renal
  TGI: > 100 µM

## CC1(C(=O)O)C[C@](C)(C(=O)OCc2ccccc2)C[C@](C)(C(=O)OCc2ccccc2)C1 (stereo partly drawn)
TK-10 renal
  TGI: > 100 µM
PC-3 prostate
  TGI: > 100 µM
HCT-15 colon
  TGI: 85.9 µM
IGROV1 ovarian
  TGI: 52.7 µM
OVCAR-3 ovarian
  TGI: 73.7 µM
NCI/ADR-RES ovarian
  TGI: > 100 µM
HT29 colon
  TGI: > 100 µM
K-562 leukemia
  TGI: > 100 µM
UO-31 renal
  TGI: 40.7 µM

## CS(C)(=O)=Nn1c(=O)n2n(c1=O)C1c3ccccc3C2c2ccccc21
TK-10 renal
  TGI: > 100 µM
PC-3 prostate
  TGI: > 100 µM
HCT-15 colon
  TGI: > 100 µM
IGROV1 ovarian
  TGI: > 100 µM
OVCAR-3 ovarian
  TGI: > 100 µM
MDA-MB-231 breast
  TGI: > 100 µM
NCI/ADR-RES ovarian
  TGI: > 100 µM
HT29 colon
  TGI: > 100 µM
K-562 leukemia
  TGI: > 100 µM
UO-31 renal
  TGI: > 100 µM
